Values joined by “and” are separate entries in the source; they are usually repeats but may differ in a detail not shown here. Equal values may be shown once.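 Test compounds were applied to cells in 96-well plates for 48 hours at 5 doses. Abbreviation: GI50, concentration required for 50% inhibition of growth. TGI is the concentration that stops growth completely.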
Assays:
SN12K1 renal = assay: NCI tumour cell line growth inhibition, 48 h
P388 leukemia = assay: NCI tumour cell line growth inhibition, 48 h

Question: For `O=NN(CCCl)C(=O)NC1CCC(CC2CCC(NC(=O)N(CCCl)N=O)CC2)CC1` (stereo not given), which TGI (SN12K1 renal) is on record?
Answer: 34.2 µM

Question: How did the GI50 (P388 leukemia) turn out when `CNCCN=c1ccc2c3c1c(O)c1c(O)ccc(=O)c1c3[nH]n2CCNCCO` was run?
Answer: < 0.0172 µM and 0.0845 µM

Question: What about the TGI (P388 leukemia) of the same molecule?
Answer: 0.0448 µM and 0.246 µM

Question: What about the GI50 (SN12K1 renal) of the same molecule?
Answer: 0.05 µM

Question: What about the TGI (SN12K1 renal) of the same molecule?
Answer: 2.54 µM and 0.598 µM

Source: PubChem BioAssay (NCI)
